Experimental data from patent US20110053897A1 (IRM LLC, priority 2009, published 2011).
Where two headings read alike, the source gives them in different places.

Biological target: T1, Syk kinase (Homo sapiens, UniProt P43405)
T1 construct: purchased
Assay: Syk kinase inhibition, Caliper LabChip off-chip mobility-shift kinase assay
Type: biochemical
Details: read-out: Syk Enzyme IC50
Summary of the method: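 Purified Syk pre-incubated 15 min with compound in 100 mM HEPES pH 7.5, 1 mM DTT, 10 mM MgCl2 or MnCl2, 0.002% Brij-35, then 1.5 μM fluorescein peptide and ATP at apparent KM added; 1–1.5 h at room temperature, 4% DMSO, EDTA stop. Microfluidic mobility-shift product/substrate conversion gave % inhibition; IC50 from 12-point series (10–0.00003 μM) by 4-parameter fit.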

Row | SMILES | IC50 [nM] | IC50 (Caliper LabChip assay) [nM]
1 | Cc1ccnc(Nc2cc3cc[nH]c(=O)c3c(N[C@H]3CCOC3)n2)c1 [compound 302] | 83 | 
2 | CCn1ccc2cc(Nc3cnccn3)nc(N[C@@H]3CCC[C@@H]3O)c2c1=O [compound 419] | 94.4 | 
3 | CC[C@H](CO)Nc1nc(Nc2cc(C)ccn2)cc2ccn(CC)c(=O)c12 [compound 598] |  | 518
4 | C[C@H](O)c1ccnc(Nc2cc3ccn(CCO)c(=O)c3c(NC(C)(C)C)n2)c1 [compound 714] |  | 13
5 | COCC(C)N1CCC(c2ccc(Nc3nc(-c4cncc(OC)n4)cc4cc[nH]c(=O)c34)cc2C)CC1 (centres unmarked) [compound 174] | 14 | 
6 | CC(C(N)=O)n1ccc2cc(-c3cnc(N)nc3)nc(NC(C)(C)C)c2c1=O (centres unmarked) [compound 665] |  | 5
7 | CCn1ccc2cc(Nc3cc(C)ccn3)nc(N[C@@H]3CC[C@@H](CO)C3)c2c1=O [compound 790] |  | 88
8 | CCOCCN1CCC(c2ccc(Nc3nc(-c4cncc(OC)n4)cc4cc[nH]c(=O)c34)cc2C)CC1 [compound 85] | 78 | 
9 | CC(C)(C)Nc1nc(Nc2cc(N3CCC(=O)CC3)ncn2)cc2ccn(CCO)c(=O)c12 [compound 632] |  | 117
10 | CS(=O)(=O)CCn1ccc2cc(Nc3cnccn3)nc(N[C@H]3CC[C@H](O)CC3)c2c1=O [compound 982] |  | 22
11 | CC(C)(C)Nc1nc(Nc2cnccn2)cc2ccn(Cc3c[nH]nn3)c(=O)c12 [compound 881] |  | 18
12 | NC(=O)Cn1ccc2cc(-c3cnc(N)nc3)nc(N[C@H]3C[C@@H](CO)C3)c2c1=O [compound 746] |  | 44
13 | C[C@@H](O)CNc1nc(Nc2cnccn2)cc2ccn(C)c(=O)c12 [compound 470] | 82 | 
14 | Cn1ccc2cc(-c3cnc(N)nc3)nc(NC3CC3)c2c1=O [compound 38] | 62 | 
15 | Nc1ncc(-c2cc3cc[nH]c(=O)c3c(NCC3CC3)n2)cn1 [compound 189] | 384 | 
16 | COCC(O)CN1CCC(c2ccc(Nc3nc(-c4cncc(OC)n4)cc4cc[nH]c(=O)c34)cc2C)CC1 (centres unmarked) [compound 142] | 7 | 

Row | SMILES | IC50 [nM] | IC50 (Caliper LabChip assay) [nM]
17 | Cc1ncc(-c2cc3cc[nH]c(=O)c3c(Nc3ccc([C@H]4CC[C@@H](N5CCOCC5)CC4)cc3)n2)cn1 [compound 11] | 652 | 
18 | NC(=O)Cn1ccc2cc(-c3cnc(N)nc3)nc(NC3CCCC3)c2c1=O [compound 757] |  | 59
19 | CCn1ccc2cc(Nc3cc(C)ccn3)nc(N[C@@H]3CCC[C@H]3O)c2c1=O [compound 939] |  | 1050
20 | Cc1ccnc(Nc2cc3ccn(C)c(=O)c3c(Nc3cccc(S(N)(=O)=O)c3)n2)c1 [compound 352] | 294 | 
21 | Cc1ccnc(Nc2cc3cc[nH]c(=O)c3c(NC3CCCC3)n2)c1 [compound 292] | 176 | 
22 | CC(C)(C)Nc1nc(Nc2cc(C(=O)O)ccn2)cc2ccn(CCO)c(=O)c12 [compound 680] |  | 643
23 | COc1cncc(-c2cc3cc[nH]c(=O)c3c(Nc3ccc(C4CCN(C(=O)N(C)C)CC4)c(C)c3)n2)n1 [compound 177] | 496 | 
24 | CCn1ccc2cc(Nc3cnccn3)nc(NC(C)(CO)CO)c2c1=O [compound 809] |  | 153
25 | Cn1ccc2cc(Nc3cnccn3)nc(NCC3CCCO3)c2c1=O (centres unmarked) [compound 475] | 139 | 
26 | CCn1ccc2cc(Nc3cc(C)ccn3)nc(NC(C)(CO)CO)c2c1=O [compound 808] |  | 81
27 | Cc1ccnc(Nc2cc3ccn(C)c(=O)c3c(N[C@H]3CCC[C@H]3O)n2)c1 (racemic) [compound 324] | 98 | 
28 | Nc1ncc(-c2cc3cc[nH]c(=O)c3c(NCCc3cccnc3)n2)cn1 [compound 188] | 93 | 
29 | COCCN1CCN(c2n[nH]c3cc(Nc4nc(-c5cncnc5)cc5cc[nH]c(=O)c45)ccc23)CC1 [compound 214] | 17 | 
30 | CC(C)(C)Nc1nc(Nc2cnccn2)cc2ccn(CC(=O)N3CCOCC3)c(=O)c12 [compound 1008] |  | 238
31 | COc1cncc(-c2cc3cc[nH]c(=O)c3c(Nc3ccc(C4CCN(CCC#N)CC4)c(C)c3)n2)n1 [compound 128] | 79 | 
32 | O=c1[nH]ccc2cc(-c3cncnc3)nc(Nc3ccc(C4CNC4)cc3)c12 [compound 129] | 109 | 
